These results are taken from paper PMC6471062, “Suppression of the Ubiquitin Pathway by Small Molecule Binding to Ubiquitin Enhances Doxorubicin Sensitivity of the Cancer Cells” (Molecules, 2019).

The structures appear in SMILES notation. Where two headings read alike, the source gives them in different places.

In one data set the target is USP5 (Homo sapiens). In words: Deubiquitination assay, cleavage of GST-Ubiquitin-HA by USP5 (SDS-PAGE band intensity). It counts as biochemical. The method, then: (§1) For in vitro ubiquitination assays, 500 µM of ubiquitin was used for each ubiquitination reaction as described previously, in the absence or presence of 50–500 µM of CR. […] The generation of GST-ubiquitin from GST-Ubiquitin-HA as the mobility shifts were analyzed on 12.5% SDS-PAGE visualized by Coomassie blue staining. Band intensities were quantified by ImageJ [55] and used to generate the IC50 curves (log inhibitor vs. normalized response with variable slope) by GraphPad Prism version 6.0 for Windows (GraphPad Software, San Diego, CA, USA, www.graphpad.com).
Chain of USP5 (Homo sapiens) (P45974 2-858, other chains not shown): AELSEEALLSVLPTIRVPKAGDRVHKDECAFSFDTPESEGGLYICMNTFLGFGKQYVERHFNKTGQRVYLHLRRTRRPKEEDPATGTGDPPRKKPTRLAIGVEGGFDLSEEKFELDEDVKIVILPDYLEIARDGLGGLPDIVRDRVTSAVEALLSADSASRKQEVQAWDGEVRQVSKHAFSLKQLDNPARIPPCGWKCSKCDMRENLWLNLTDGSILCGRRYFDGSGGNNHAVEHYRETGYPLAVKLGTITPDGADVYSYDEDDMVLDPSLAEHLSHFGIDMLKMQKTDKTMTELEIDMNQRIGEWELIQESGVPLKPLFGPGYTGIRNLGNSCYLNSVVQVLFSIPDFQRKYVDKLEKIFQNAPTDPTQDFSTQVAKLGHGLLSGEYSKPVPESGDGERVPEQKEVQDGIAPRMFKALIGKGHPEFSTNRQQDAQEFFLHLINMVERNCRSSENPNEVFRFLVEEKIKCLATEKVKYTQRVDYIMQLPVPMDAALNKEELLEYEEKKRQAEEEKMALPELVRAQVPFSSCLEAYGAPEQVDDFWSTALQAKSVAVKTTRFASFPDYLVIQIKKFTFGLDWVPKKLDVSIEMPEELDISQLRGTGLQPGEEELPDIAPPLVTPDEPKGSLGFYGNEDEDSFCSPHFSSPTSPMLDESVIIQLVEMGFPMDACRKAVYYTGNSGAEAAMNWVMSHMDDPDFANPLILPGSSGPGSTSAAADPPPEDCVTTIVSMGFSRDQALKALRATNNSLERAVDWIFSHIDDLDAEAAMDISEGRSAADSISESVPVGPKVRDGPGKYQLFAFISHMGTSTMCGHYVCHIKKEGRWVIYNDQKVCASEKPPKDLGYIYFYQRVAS

For a further data set, the target named is UCHL1 (Homo sapiens). In words: Deubiquitination assay, cleavage of GST-Ubiquitin-HA by UCHL1 (SDS-PAGE band intensity). It counts as biochemical. The procedure:
as §1

Details of data set [1]: method as in PMID 27613091. The settings on record: previous study ref 35; cited from earlier work.
Another data set addresses ubiquitin (Homo sapiens, UniProt P0CG47). In words: Intrinsic fluorescence quenching assay of ubiquitin. The following applies: 50 µM ubiquitin, 0–500 µM compound, ex 274 nm / em 305 nm; read-out: Kd, dissociation constant upon binding to ubiquitin. The procedure: Intrinsic fluorescence quenching assays were performed as described previously. Briefly, intrinsic fluorescence quenching of ubiquitin by indicated compounds was observed by measuring the excitation and emission wavelength at 274 nm and 305 nm respectively of the mixture of 50 µM purified ubiquitin and 0–500 µM compound. Data were fitted to nonlinear regression curves with the equation described previously. F = −∆ε·[PC] + Fo(3) b = (Po + Co + Kd)(4) c = Po·Co(5) [PC] = [b − (b^2 − 4·c)^1/2]/2(6) where Fo and F are the normalized fluorescence intensity of the mixture of ubiquitin without the compound and with different concentrations of the compound, respectively. ∆ε is a difference in the extinction coefficient of the compound between their free and complex forms. [PC] is the concentration of protein/compound complex. Po and Co are the added concentration of ubiquitin and the compound, respectively in each experiment. Kd is the dissociation constant.

Data set [2] concerns H1299 cells. In words: Dox-induced cell death, colorimetric cell viability, H1299. It counts as cell-based. The procedure:
(§2) Figure 7 CR enhances Dox sensitivity of cancer cells. (a,b) Enhancement of Dox-induced apoptosis of cancer cells by CR treatment. Dox–induced apoptosis of H1299 (a) and HCT116 (b) was quantified by colorimetric cell viability after treating 10 µM CR for 12 h followed by 12h treatment of Dox (0.0–5.0 µM). […] Caspase activity was quantified by luminogenic caspase activity assay. […] All error bars represent the standard deviation from at least four independent experiments. Statistical significance was calculated by the Student’s t-test (** p < 0.01, *** p < 0.001).
(§3) Cell viability assays were performed as described previously. For the caspase assays, the media were removed, and cells were lysed in 200 µL lysis buffer containing 50 µL Caspase Glo 3/7 solution and incubated for 15 min. Results were observed by measuring the luminescence signal using KOMM-Nr (Berthold Technologies, Bad Wildbad, Germany) and normalized with the total protein concentration measured by the Bradford assay. Data were analyzed using GraphPad Prism version 6.0 for Windows with two tail t-test for statistical data analysis […]
(§4) Figure S8. NSC697923 enhances Dox sensitivity of cancer cells. (a, b) Effect of NSC697923 to cancer cells’ viability in Dox treatment . Dox–induced cell death of H1299 ( a) and HCT116 ( b) was quantified by colorimetric cell viability assay after treating 5 µM NSC697923 for 12 h followed by 12h treatment of Dox (0.0 […]
(§5) NSC697923. Caspase activity was quantified by luminogenic caspase activity assay. All error bars represent the standard deviation from at least 4 independent experiments. *, P<0.05; **, P<0.01; ***, P<0.001.

Data set [3] deals with HCT116 cells. In words: Dox-induced cell death, colorimetric cell viability, HCT116. The settings on record: for Effect on Dox-induced cell death, HCT116: 10 µM CR or 5 µM NSC697923 12 h, then Dox 1.25–5.0 μM 12 h. It counts as cell-based. The procedure: as §2
(§6) Cell viability assays were performed as described previously. For the caspase assays, the media were removed, and cells were lysed in 200 µL lysis buffer containing 50 µL Caspase Glo 3/7 solution and incubated for 15 min. Results were observed by measuring the luminescence signal using KOMM-Nr (Berthold Technologies, Bad Wildbad, Germany) and normalized with the total protein concentration measured by the Bradford assay. […]
as §4, §5

For data set [4], the system named is H1299 cells. In words: Dox-induced K48- and K63-polyubiquitination in cells (immunofluorescence staining, Western blot). Format: cell-based. The following applies: H1299, non-pretreated, 5 µM Dox. The method, then: Figure 6 CR inhibits Dox-induced ubiquitination in the cells. (a) Immunofluorescence staining of H1299 cells treated with or without 5 (+) and 10 (++) μM CR for 12 h followed by addition of Dox to a final concentration of 5 μM, with incubation for 12 h. The cells were subjected to immunofluorescence staining using the antibodies against K48 (αK48) and K63 polyubiquitins (αK63). (b) K48 or K63 polyubiquitin level in Figure 6a was quantified by fluorescence signal. At least seven random regions acquired in confocal images were sampled and normalized against DAPI intensity for quantification. (c) Immunoblots of samples in Figure 6a using the indicated antibodies. […] Statistical significance was calculated by the Student’s t-test (* p < 0.05, ** p < 0.01, *** p < 0.001).
Cells were seeded in the SPL 4 wells cell culture chamber slide 24 h before experiment. […] Subsequently, cells were incubated with primary antibody at 1/200 dilution in blocking buffer overnight and then washed with blocking buffer five times (5 min each) before incubation with fluorescence-conjugated secondary antibody at 1/200 dilution in blocking buffer for 1 h. […] Images acquired in confocal imaging were subjected to fluorescence intensity analysis using ImageJ [55]. Fluorescence signal representing a particular ubiquitin chain level was analyzed and normalized with the intensity of DAPI. […]
For orientation: In western blotting, separated proteins are transferred to a membrane and probed.

For data set [5], the system named is HCT116 cells. The data set is described as follows: Luminogenic caspase activity assay (Caspase Glo 3/7), HCT116. It counts as cell-based. The following applies: 10 µM CR or 5 µM NSC697923 with Dox. The procedure:
as §2, §6, §4
(§7) NSC697923. Caspase activity was quantified by luminogenic caspase activity assay. […]

Data set [6] deals with H1299 cells. In words: Luminogenic caspase activity assay (Caspase Glo 3/7), H1299. Format: cell-based. The following applies: 10 µM CR or 5 µM NSC697923 with Dox. The procedure: as §2, §6, §4, §7
For data set [7], the system named is H1299 cells. The data set is described as follows: Cytotoxicity, cell viability assay. It counts as cell-based. The settings on record: determined by cytotoxicity assays. The method, then: as §3
Figure S7. Cytotoxicity of CR to cancer cells. H1299 cells were cultured in 96 -well plates. CR was added to final concentrations of 0.0 – 50.0 µM, and the cells were incubated for 24 h followed by cell viability assay. All error bars represent the standard deviation from at least 4 independent experiments. Statistical comparisons between groups were determined by Student’s t -test. If p -values are less than 0.05, they are statistically significant . NS, not […]
(1 picture or pasted object on this page, not shown here)

Where [8] appears, read: 0.6 µM USP5, 5 µM GST-Ubiquitin-HA, 0–45 µM compound, read-out: IC50 USP5 (DUB activity).
The mark [9] stands for this setting: 8 µM UCHL1, 5 µM GST-Ubiquitin-HA, 0–45 µM compound, read-out: IC50 UCHL1 (DUB activity).

Chain of UCHL1 (Homo sapiens) (P09936 whole entry, other chains not shown): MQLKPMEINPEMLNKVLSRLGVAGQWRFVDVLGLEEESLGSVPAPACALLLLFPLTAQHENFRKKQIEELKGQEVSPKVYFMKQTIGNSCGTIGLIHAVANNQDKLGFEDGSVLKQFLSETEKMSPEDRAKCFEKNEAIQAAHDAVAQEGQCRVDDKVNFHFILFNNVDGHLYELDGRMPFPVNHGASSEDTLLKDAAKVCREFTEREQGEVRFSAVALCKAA

Consider `COc1cc(-c2ccc(/N=N/c3ccc4c(S(=O)(=O)O)cc(S(=O)(=O)O)c(N)c4c3O)c(OC)c2)ccc1/N=N/c1ccc2c(S(=O)(=O)O)cc(S(=O)(=O)O)c(N)c2c1O` [CSB6B, Chicago Sky Blue 6B], for which the IC50 (in general, the midpoint of a concentration-inhibition curve) is 6.52 ± 0.786 µM against USP5 (Homo sapiens) and 11.2 ± 1.37 µM against UCHL1 (Homo sapiens). Also, in data set [1], the Cell membrane penetration entry is reported as “not able to penetrate the cell membrane”. Besides, the Kd (as a rule, the free concentration of one partner at which half of the binding sites on the other are occupied at equilibrium, for simple one-to-one binding) at ubiquitin stood at 12 ± 0.678 µM.

Turning to `COc1cc(-c2ccc(/N=N/c3c(S(=O)(=O)O)cc4cc(S(=O)(=O)O)cc(N)c4c3O)c(OC)c2)ccc1/N=N/c1c(S(=O)(=O)O)cc2cc(S(=O)(=O)O)cc(N)c2c1O` [DB15, Direct blue 15], on USP5 (Homo sapiens) (setting [8]), the IC50 turned out to be 32.5 ± 5 µM. In addition, at ubiquitin, the Kd turned out to be 60.3 ± 2.3 µM.

In the case of `Nc1ccc2c(O)c(N=Nc3ccc(N=Nc4ccc(N=Nc5cc(S(=O)(=O)O)c6cccc(S(=O)(=O)O)c6c5)c5ccccc45)c4ccc(S(=O)(=O)O)cc34)c(S(=O)(=O)O)cc2c1` [DB71, Direct blue 71], the IC50 at USP5 (Homo sapiens) (setting [8]) was determined as 13.7 ± 2.74 µM; at UCHL1 (Homo sapiens) (setting [9]), 33.7 ± 4.05 µM. In addition, the equilibrium dissociation constant (Kd) at ubiquitin amounted to 20 ± 0.835 µM.

For the molecule `COc1cccc2c1C(=O)c1c(O)c3c(c(O)c1C2=O)C[C@@](O)(C(=O)CO)C[C@@H]3O[C@H]1C[C@H](N)[C@H](O)[C@H](C)O1` [Dox, doxorubicin], the “Dox-induced cell death, Dox alone, H1299” value in the data set with H1299 cells [2] (Dox 1.25 to 5.0 μM, 12 h) is given as “proportional to the Dox concentration”. For the same molecule, the “Dox-induced cell death, Dox alone, HCT116” value in the data set with HCT116 cells [3] (Dox 1.25 to 5.0 μM, 12 h) was “proportional to the Dox concentration”. Further, in the data set on H1299 cells [4], the “K48- and K63-polyubiquitination upon Dox alone” value is “enhanced K48- and K63-polyubiquitination”.

Take `Cc1cc(-c2ccc(/N=N/c3ccc4c(S(=O)(=O)O)cc(S(=O)(=O)O)c(N)c4c3O)c(C)c2)ccc1/N=N/c1ccc2c(S(=O)(=O)O)cc(S(=O)(=O)O)c(N)c2c1O` [EB, Evans blue]: the IC50 at USP5 (Homo sapiens) (setting [8]) was 9.33 ± 1.58 µM; at UCHL1 (Homo sapiens) (setting [9]), 18.1 ± 2.09 µM. The Kd at ubiquitin worked out at 13 ± 0.689 µM.

Turning to `Cc1ccc(S(=O)(=O)c2ccc([N+](=O)[O-])o2)cc1` [NSC697923], in the data set on H1299 cells [2] (10 µM CR or 5 µM NSC697923 12 h, then Dox 1.25–5.0 μM 12 h), the “Effect on Dox-induced cell death, H1299” value is given as “significantly enhanced Dox-induced cell death”. The “Effect on Dox-induced cell death, HCT116” value in the data set on HCT116 cells [3] is given as “only a synergistic effect at low concentrations of Dox”; with HCT116 cells [3] (listed as NSC967923), “significantly enhanced Dox-induced cell death”. In the data set with HCT116 cells [5], the “Effect on caspase activity of Dox-treated HCT116 cells” value is recorded as “Enhanced caspase activity”. In the data set on H1299 cells [6], the “Effect on caspase activity of Dox-treated H1299 cells” value was “Enhanced caspase activity”. In addition, the None-toxicity concentration with H1299 cells [7] was 5 µM.

With `Cc1cc(-c2ccc(/N=N/c3c(S(=O)(=O)O)cc4cc(S(=O)(=O)O)cc(N)c4c3O)c(C)c2)ccc1/N=N/c1c(S(=O)(=O)O)cc2cc(S(=O)(=O)O)cc(N)c2c1O` [TB, Trypan blue], the 50% inhibitory concentration (IC50) on USP5 (Homo sapiens) (setting [8]) was greater than 45 µM. For the same molecule, the Kd at ubiquitin turned out to be 78.1 ± 4.02 µM.
